Columns and labels:
[1] = target: T1, native CAC (mitochondrial rat liver extract) (Rattus norvegicus, UniProt P97521); assay: Transport activity of native CAC from mitochondrial extract reconstituted into liposomes; assay type: biochemical; details: after 30 min of incubation; concentration range 1–200 μM; read-out: EC50 of activation of native CAC
T1 construct: Mitochondrial rat liver extract (0.3 mg proteins in 3% Triton X-100) containing native CAC was reconstituted into liposomes; from tissue; host or cells: rat liver mitochondrial Triton X-100 extract
T1 sequence (P97521 1-301): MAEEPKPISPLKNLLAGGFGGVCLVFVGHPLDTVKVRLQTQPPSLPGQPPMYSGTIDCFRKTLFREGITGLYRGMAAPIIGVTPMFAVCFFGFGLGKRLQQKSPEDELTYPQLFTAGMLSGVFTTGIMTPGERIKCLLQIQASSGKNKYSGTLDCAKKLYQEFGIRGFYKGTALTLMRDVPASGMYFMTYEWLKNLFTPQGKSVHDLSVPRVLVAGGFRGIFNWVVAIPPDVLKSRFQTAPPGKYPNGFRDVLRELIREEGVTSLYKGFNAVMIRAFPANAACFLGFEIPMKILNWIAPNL
Protocol: To detect the effect of DAN on native CAC, mitochondrial extract was reconstituted into liposomes and transport activity was measured adding various concentrations of compound. In Figure 7A, the dose–response curve is shown. […] Thus, the effect of different concentrations of DAN was tested also on the purified recombinant wild-type (WT) CAC carrier reconstituted into liposomes, measuring the antiport rate of carnitine.
Mitochondrial rat liver extract (0.3 mg proteins in 3% Triton X-100) containing native CAC was reconstituted into liposomes by removing the detergent from the mixed micelles through a hydrophobic ion-exchange column containing the resin Amberlite XAD-4, as described previously. […]
Before starting the transport activity, proteoliposomes were passed through a Sephadex G-75 column (0.7 cm diameter; 15 cm height; Pharmacia, Milan, Italy) to remove the external substrate. […] Finally, the external substrate was removed by chromatography on Sephadex G-75 columns (0.7 cm diameter; 10 cm height) and intraliposomal radioactivity was measured by a liquid scintillation counter (Perkin Elmer, Milan, Italy).
EC50 values were calculated using AATBioquest EC50 calculator [60]. […]

physchem = details: pH 7.4
Protocol: In order to check the hydrolytic stability of DAN in buffered media, we used a HPLC method to check the stability of 20 μM DAN in phosphate buffered saline (PBS) at physiological pH of 7.4, at 37 °C.
The chromatographic data were acquired using the Waters Breeze software (version 3.20). Analyses were performed on a Phenomenex C18 column (150 × 4.6 mm i.d., 3 µm particle size; Phenomenex srl, Castel Maggiore, Italy) using a mobile phase of methanol/water (75:25 v/v), with aqueous formic acid 0.1%. The used flow rate was 0.5 mL/min and the injection volume was 20 µL. Wavelength UV-Vis detector was set at 380 nm.
The chemical stability of dantrolene sodium was evaluated in a phosphate buffered saline solution pH 7.4 (10 mM HPO4^2−/H2PO4^−, 100 mM NaCl) at 37 °C. Samples were tested in triplicate starting from three different stocks solution (1 mM), which were prepared separately.

[2] = ABTS radical scavenging assay; assay type: physicochemical; details: compound at 0.2·[ABTS+]
Source text: Starting from these evidences, we tested DAN in two in vitro models of radical scavenging activity, i.e., the 1,1-diphenyl-2-picryl-hydrazyl (DPPH) and 2,2′-azinobis-(3-ethylbenzothiazoline-6-sulfonic acid) (ABTS) free radical production. Both generate stable nitrogen radicals showing high absorption in visible spectrum, thus allowing easy and straightforward spectrophotometric measures. […] It can be assumed that the antioxidant activity of DAN is independent from its radical scavenging properties.
Already published protocols for DPPH and […] radical scavenging were used. The scavenging of the radical DPPH^·, or the monocation radical ABTS^·+, were determined by measuring the loss of absorbance at 515 or 755 nm, respectively. Samples were prepared in clear polystyrene flat-bottomed 96-well microplates. […] A preliminary absorbance reading at 755 nm allowed to determine the actual ABTS^·+ concentration (normally 60–70 μM; extinction coefficient ε = 12,000) and set the final concentration of inhibitors to 0.2[ABTS^·+]. 215 μL of ABTS^·+ solution were mixed with 35 μL of stock solution of inhibitors and the decrease in absorbance was monitored. Antioxidant activity was determined from Equation (2) as the percentage of radical production of inhibitor containing samples, compared with control: % radical production = 100 × ABSsample/ABScontrol(2)

[3] = set-up: method as in PMID 11735355; details: cited from earlier work

For O=C1CN(/N=C/c2ccc(-c3ccc([N+](=O)[O-])cc3)o2)C(O)=N1 [Dantrolene], the EC50 [1] was 18 ± 5 µM, the recovery at 60 h, 20 μM (physchem) was 92% and the “ABTS radical scavenging activity” value [2] was “no activity”. For the same compound, the “antioxidant potency, Fe3+/Fe2+ reduction” value [3] was “high antioxidant potency”.

From PMC6930524, “A Prospective Repurposing of Dantrolene as a Multitarget Agent for Alzheimer’s Disease” (Molecules, 2019)
